Patent publication US6730495B2, “Methods for the identification of antimicrobial compounds” (Mycologics, Inc., priority 2001, dated 2004)

What was measured:
ketol-isomerase [1] = target: ketol-isomerase (Aspergillus fumigatus, UniProt E9R5E2); assay: nitro BT ketol-isomerase inhibition assay with crude A. fumigatus cell extract; assay type: biochemical; conditions: UDP-GlcNAc 0 to 10 mM
Experimental: Briefly, in this experiment, a series of ketol-isomerase reactions were analyzed in parallel, wherein each reaction mixture contained Fru-6-P, glutamine, and crude A. fumigatus cell extract (as described in Example 3). In addition, reactions also contained various concentrations of UDP-GlcNAc, ranging from 0 to 10 mM. Reactions were incubated at 37° C. for 60 minutes, after which time the ketol-isomerase reactions were terminated by heating at 70° C. for 15 min. However, the ketol-isomerase reaction can also be terminated by boiling for 5 minutes. In addition, the ketol-isomerase reaction can be clarified following the inactivation step by centrifugation or filtration.
Following arrest of the ketol-isomerase reaction, the necessary reagents for the nitro BT reaction were added to each reaction mixture, including glutamate dehydrogenase enzyme and molar excesses of β-NAD, PMS, and nitro BT. After incubation at 37° C. for 90 minutes, the color development was quantitated by measurement of OD585 nm. […]
In this experiment, 50 μL aliquots of a ketol-isomerase reaction mixture containing 10 mM Fru-6-P, 10 mM Gln, 0.3 mg/mL crude A. fumigatus extract, and various concentrations of UDP-GlcNAc were incubated at 37° C. for 60 minutes. […] After incubation at 37° C. for 90 minutes, the color development was quantitated by OD585 nm.

ketol-isomerase [2] = target: T1, ketol-isomerase (Candida albicans, UniProt P53704); conditions: C. albicans strain ATCC No. 10261 crude cell extracts; Milewski et al., J. Biol. Chem., 274:4000-4008 [1999]; read-out: IC50, inhibition of ketol-isomerase activity; cited from earlier work
T1 construct: ketol-isomerase activity in crude cell extract of Candida albicans ATCC10261 yeast-like cells; host or cells: Candida albicans ATCC 10261 crude cell extract
T1 sequence (P53704 2-713): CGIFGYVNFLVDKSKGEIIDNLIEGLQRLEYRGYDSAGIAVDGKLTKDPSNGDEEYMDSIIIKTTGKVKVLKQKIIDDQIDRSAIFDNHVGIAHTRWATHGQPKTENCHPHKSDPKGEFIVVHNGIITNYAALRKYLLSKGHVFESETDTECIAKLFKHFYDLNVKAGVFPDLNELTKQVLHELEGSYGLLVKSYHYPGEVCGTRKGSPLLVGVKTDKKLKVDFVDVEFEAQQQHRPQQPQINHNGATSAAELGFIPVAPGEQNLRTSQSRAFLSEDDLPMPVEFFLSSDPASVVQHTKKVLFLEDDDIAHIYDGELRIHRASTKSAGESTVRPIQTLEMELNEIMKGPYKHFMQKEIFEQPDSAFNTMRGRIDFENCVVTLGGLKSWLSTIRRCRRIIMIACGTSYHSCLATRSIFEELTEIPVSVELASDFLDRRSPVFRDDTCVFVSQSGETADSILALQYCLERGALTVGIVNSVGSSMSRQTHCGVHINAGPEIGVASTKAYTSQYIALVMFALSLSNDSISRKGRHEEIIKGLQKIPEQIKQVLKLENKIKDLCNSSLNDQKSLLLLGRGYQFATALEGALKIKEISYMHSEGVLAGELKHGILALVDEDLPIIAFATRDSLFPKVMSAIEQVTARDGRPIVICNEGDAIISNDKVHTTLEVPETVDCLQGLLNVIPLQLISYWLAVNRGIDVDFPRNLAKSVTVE

Chain of ketol-isomerase (Aspergillus fumigatus, UniProt E9R5E2) (E9R5E2 entry or part of it): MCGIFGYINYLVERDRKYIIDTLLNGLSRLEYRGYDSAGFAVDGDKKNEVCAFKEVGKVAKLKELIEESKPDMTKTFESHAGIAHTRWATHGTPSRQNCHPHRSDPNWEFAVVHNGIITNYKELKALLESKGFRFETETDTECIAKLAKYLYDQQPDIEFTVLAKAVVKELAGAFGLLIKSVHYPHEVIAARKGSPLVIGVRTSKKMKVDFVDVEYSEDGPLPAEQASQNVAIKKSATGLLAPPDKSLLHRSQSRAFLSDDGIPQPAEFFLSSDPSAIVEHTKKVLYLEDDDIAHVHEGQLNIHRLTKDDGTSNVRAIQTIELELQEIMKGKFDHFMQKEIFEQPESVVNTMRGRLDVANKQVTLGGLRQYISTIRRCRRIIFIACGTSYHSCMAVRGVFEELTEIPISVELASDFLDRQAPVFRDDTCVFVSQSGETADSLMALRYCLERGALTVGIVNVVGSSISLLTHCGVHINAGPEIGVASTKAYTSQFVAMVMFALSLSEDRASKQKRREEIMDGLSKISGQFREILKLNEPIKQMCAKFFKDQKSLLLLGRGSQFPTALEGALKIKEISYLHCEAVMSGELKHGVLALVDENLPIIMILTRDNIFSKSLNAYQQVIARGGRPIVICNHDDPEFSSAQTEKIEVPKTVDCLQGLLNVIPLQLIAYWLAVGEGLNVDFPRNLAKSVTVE

Question: For `CC(=O)N[C@H]1[C@@H](OP(=O)(O)OP(=O)(O)OC[C@H]2O[C@@H](n3ccc(=O)[nH]c3=O)[C@H](O)[C@@H]2O)O[C@H](CO)[C@@H](O)[C@@H]1O` [UDP-GlcNAc, UDP-N-acetylglucosamine], which “inhibition of ketol-isomerase activity in A. fumigatus crude extract (FIG. 5)” value (ketol-isomerase [1]) is on record?
Answer: The value was “inhibited by UDP-GlcNAc in a dose-dependent manner”.

Question: And the IC50 (ketol-isomerase [2])?
Answer: The IC50 was 690 µM.
